PMC11881452, “Inactivation of NLRP3 inflammasome by dephosphorylation at Serine 658 alleviates glial inflammation in the mouse model of Parkinson’s disease” (Molecular Neurodegeneration, 2025)

Assays:
NLRP3 [1] = target: T1, NLRP3 (Homo sapiens, UniProt Q96P20); assay: streptavidin pull-down from HEK-293T lysates, Western blot; type: cell-based; parameters: Flag-NLRP3; Flag-NLRP3 (NACHT: 220-536aa); Flag-NLRP3 (LRR: 742-991aa)
Target sequence in this assay (Q96P20 220-536): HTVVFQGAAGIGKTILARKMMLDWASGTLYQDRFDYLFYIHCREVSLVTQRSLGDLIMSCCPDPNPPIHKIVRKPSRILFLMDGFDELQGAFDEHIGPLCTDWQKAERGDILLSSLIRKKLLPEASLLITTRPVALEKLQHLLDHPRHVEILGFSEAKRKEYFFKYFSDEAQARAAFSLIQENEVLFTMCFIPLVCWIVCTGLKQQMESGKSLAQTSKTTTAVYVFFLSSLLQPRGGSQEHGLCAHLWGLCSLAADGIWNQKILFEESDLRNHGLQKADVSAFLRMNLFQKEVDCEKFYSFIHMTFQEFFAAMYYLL

NLRP3 [2] = target: T1, NLRP3; assay: SPR, NLRP3 immobilized on CM5 chip, […] binding model; parameters: Recombinant human NLRP3 protein (CUSBIO, #CSB-EP822275HU3)
Target sequence in this assay (Q96P20 whole entry): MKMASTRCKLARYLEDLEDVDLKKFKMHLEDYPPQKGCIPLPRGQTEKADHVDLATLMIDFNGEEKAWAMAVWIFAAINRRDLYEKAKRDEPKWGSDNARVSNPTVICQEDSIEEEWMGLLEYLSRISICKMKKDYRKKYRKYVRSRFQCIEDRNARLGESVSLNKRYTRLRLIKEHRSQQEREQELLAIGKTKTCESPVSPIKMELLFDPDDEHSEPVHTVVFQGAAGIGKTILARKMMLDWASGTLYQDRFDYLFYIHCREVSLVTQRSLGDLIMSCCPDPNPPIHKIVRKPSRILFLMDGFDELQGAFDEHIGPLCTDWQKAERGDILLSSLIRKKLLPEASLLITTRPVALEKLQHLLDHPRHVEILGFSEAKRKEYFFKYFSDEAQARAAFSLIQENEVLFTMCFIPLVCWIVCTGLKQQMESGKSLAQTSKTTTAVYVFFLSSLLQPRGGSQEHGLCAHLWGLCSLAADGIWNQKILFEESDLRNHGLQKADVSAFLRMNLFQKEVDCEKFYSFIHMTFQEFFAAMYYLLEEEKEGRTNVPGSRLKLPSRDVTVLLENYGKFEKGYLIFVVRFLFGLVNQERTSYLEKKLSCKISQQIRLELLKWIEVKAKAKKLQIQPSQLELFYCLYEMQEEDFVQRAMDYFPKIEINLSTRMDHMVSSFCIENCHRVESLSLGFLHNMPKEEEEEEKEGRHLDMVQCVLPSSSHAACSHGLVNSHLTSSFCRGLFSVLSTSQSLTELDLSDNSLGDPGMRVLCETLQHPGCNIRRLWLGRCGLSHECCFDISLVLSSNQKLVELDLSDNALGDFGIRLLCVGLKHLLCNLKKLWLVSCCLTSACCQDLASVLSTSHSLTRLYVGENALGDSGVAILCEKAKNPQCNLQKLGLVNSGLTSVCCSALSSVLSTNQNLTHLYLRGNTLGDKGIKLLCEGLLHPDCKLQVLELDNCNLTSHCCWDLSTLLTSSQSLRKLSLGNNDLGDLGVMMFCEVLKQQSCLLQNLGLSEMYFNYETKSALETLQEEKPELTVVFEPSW

SMILES | streptavidin pull-down from HEK-293T lysates, Western blot (NLRP3 [1]) | Kd (NLRP3 [2])
O=C1N[C@H]2[C@H](CS[C@H]2CCCCC(=O)Oc2c3occc3cc3ccc(=O)oc23)N1 [Biotinylated-Psoralen] | Streptavidin pull-down assays showed that Bio-Pso specifically bound to the NACHT and LRR domains, but not the PYD domain | 
O=c1c2ccccc2nc2n1CCc1c-2[nH]c2ccccc12 [S2349] |  | 146 µM
O=c1ccc2cc3ccoc3cc2o1 [S4737, Psoralen] |  | 209 µM
